Values joined by “and” are separate entries in the source; they are usually repeats but may differ in a detail not shown here. Identical values can stand only once.
Key:
[1] = offset at least in part by the necessary higher dosing; cited from earlier work
[2] = system: LPS Pseudomonas aeruginosa; experiment: Endotoxin batch (batch test I), LAL test, LPS from Pseudomonas aeruginosa in plasma; type: biochemical; conditions: for LAL EU/ml: plasma + 0.5 ng/ml LPS, incubation 60 min, 37° C.
Protocol: (§1) 9 blood-sampling tubes (each measuring 9 ml) spiked with 5 IU heparin are removed from a donor. The plasma is centrifuged off and the cell pellet incubated on a roll mixer. The plasma is spiked with endotoxin (LPS) and used for batch test I:
LPS: Pseudomonas aeruginosa (L-7018 company Sigma batch: 128K4115, −70° C., at 100 μl 10−3 g/ml (1 mg/ml))
(§2) The LPS is used in the batch with a final concentration 0.5 ng/ml. The tests are carried out in 3 ml pyrogen-free glass vials. In batch test I, different PMB concentrations (company. Sigma, P-1004) are added in the duplicate approach and are incubated for 60 min on an overhead shaker at 37° C. (see Table 3.5).
(§3) In batch test 1, PMB concentrations with 0 (without PMB), 10, 100, 250, 500 and 1000 ng/ml are used. Sterile PMB solutions (autoclaved pyrogen-free at 121° C., 90 min) are produced for this purpose with the following concentrations (Table 3.3):
(§4) The endotoxins are measured in the form of EU/ml with the aid of a Limulus Amebocyte Lysate test (LAL) by Charles River.

LPS E. coli = experiment: Endotoxin batch (batch test I), LAL test, LPS from E. coli in plasma; type: biochemical; conditions: for LAL EU/ml: plasma + 0.5 ng/ml LPS, incubation 60 min, 37° C.
Protocol: as §1, §2, §3, §4

blood cells = experiment: Cytokine batch (batch test II): cytokine distribution by blood cells; type: cell-based; conditions: LPS (E. coli)-spiked plasma, 4 hours incubation
Protocol: The plasma spiked with LPS and PMB is fed back following batch test 1 to the cell concentrate obtained from the blood donor in the ratio 1:1 (see Table 3.5). For the cytokine batch, the samples from batch test I were used with a PMB concentration of 0 (without PMB), 250, 500 and 1000 ng/ml. As control, a sample without LPS and with 1000 ng/ml PMB was included. Following the incubation times of 4 h and 12 h at 37° C. on a roll mixer (5 revolutions/min), samples were taken, centrifuged off and 50 μl plasma were frozen at −80° C. for the subsequent cytokine quantification.

[3] = system: LPS (L-7018 Pseud. aerug.); experiment: PMB desorption over time: LPS inactivation by PMB-coated HPR10 in plasma (LAL test); type: biochemical, Pseudomonas aeruginosa; conditions: PMB-coated HPR10 carrier, 1% in LPS-spiked plasma (5 ng/ml), 37° C.
Protocol: The PMB solution (Sigma, 10 mg/ml in dist. water) is autoclaved at 121° C. for 30 min, and the carrier (HPR10) is then coated in 15 ml Greiner tubes with PMB as follows (see Table 10.2): 3 ml carrier with 7.5 ml PMB solution
The coating is carried out overnight on a roll mixer at room temperature. The coated carrier is then washed twice with 10 ml NaCl solution (sterile), and a 50% suspension is produced. A tube without adsorber was included as control.
The plasma with 5 IU heparin is spiked with 5 ng/ml LPS (L-7018 Pseud. aerug. company Sigma batch: 128K4115). In the triplicate approach, 1% PMB-coated carrier is incubated with the LPS-spiked plasma (30 μl carrier+2970 μl LPS spiked plasma) at 37° C. in an overhead shaker and samples were taken at intervals (5, 15 and 60 min) for LAL analysis.
The analysis was performed using an LAL test.

[4] = PMB clearance (dialyser, depletion agent, patient) for dosing calculation; conditions: specified example
Text: The following calculation example, besides the PMB patient clearance, also takes into consideration the clearance of a dialyser (dialysis filter) arranged in the extracorporeal blood circuit and the clearance of the carrier of the depletion agent. The calculation example presupposes an existing PMB serum concentration. This is provided by administration of a bolus prior to the start of the treatment, wherein the injection solutions described under Example 4 can be used for this purpose.
For the calculation of the dosing of polymyxin B via infusion in the extracorporeal blood circuit at a lipid feed point, the PMB clearance of the patient body, of the dialyser and of the depletion agent are taken into consideration: • The PMB dialysis clearance (CDial) can be determined experimentally and is dependent on the plasma flow and also on the dialysis filter type used. In the specified example, this is 60 ml/min. • The PMB clearance of the depletion agent (Cads) is dependent on the carrier material used and also on the filtrate flow.
The PMB total clearance (Ctotal) is given by addition from the individual PMB clearance rates. The resultant decrease of PMB is illustrated in FIG. 16. […]

[5] = patient, specified example; cited from earlier work
[6] = PMB concentration in the plasma 50 to 300 ng/ml (0.05 to 0.3 μg/ml)

Substance	nephrotoxicity comparison (in words) [1]	LAL EU/ml ([2]; PMB 10 ng/ml)	LAL EU/ml ([2]; PMB 100 ng/ml)	LAL EU/ml ([2]; PMB 250 ng/ml)	LAL EU/ml ([2]; PMB 500 ng/ml)	LAL EU/ml ([2]; PMB 1000 ng/ml)	inhibition of LPS from Pseudomonas aeruginosa [2, 6]	LAL EU/ml (LPS E. coli; PMB 10 ng/ml)	LAL EU/ml (LPS E. coli; PMB 100 ng/ml)	LAL EU/ml (LPS E. coli; PMB 250 ng/ml)	LAL EU/ml (LPS E. coli; PMB 500 ng/ml)	LAL EU/ml (LPS E. coli; PMB 1000 ng/ml)	inhibition of LPS from E. coli (LPS E. coli; [6])	inhibition of the cytokine distribution (TNF-alpha, IL-1beta, IL-6, IL-8) (blood cells; very low PMB concentrations (250, 500, 1000 ng/ml))	inhibition of the key mediator TNF-alpha (blood cells; very low PMB concentrations)	LPS inactivation after 5 minutes compared with after 60 minutes of incubation [3]	PMB clearance of the depletion agent (Cads) ([4]; dependent on carrier material and filtrate flow)	PMB dialysis clearance (CDial) ([4]; dependent on plasma flow and dialysis filter type)	half-life for PMB [5]
Colistin	less nephrotoxic than polymyxin B																		
polymyxin B [PMB]		0.178 EU/ml and 0.167 EU/ml	0.112 EU/ml and 0.137 EU/ml	0.108 EU/ml and 0.123 EU/ml	0.091 EU/ml and 0.081 EU/ml	0.062 EU/ml and 0.061 EU/ml	strong inhibition	0.77 EU/ml and 0.871 EU/ml	0.379 EU/ml and 0.382 EU/ml	0.281 EU/ml and 0.29 EU/ml	0.209 EU/ml	0.154 EU/ml and 0.16 EU/ml	strong inhibition	strong inhibition	particularly pronounced	almost the same	45 mL/min	60 mL/min	13.6 h

— patent publication US9861735B2, “Extracorporeal perfusion apparatus” (Fresenius Medical Care Deutschland GmbH, priority 2012, dated 2018)
